Measured values published in patent publication US20070134793A1, “REDIFFERENTIATION MEDIUM FOR MAKING […] CHONDROCYTE TO BE […] INTO CHONDROCYTE” (priority 2004, published 2007).

Tested on: dedifferentiated chondrocyte (P4, derived from human auricular cartilage)
Test: Study of preferable amount of each component in the redifferentiation medium (type II collagen expression)
Type: cell-based
Settings: insulin 50, 5, 0.5 μg/mL compared; BMP-2 200 ng/mL, T3 10^-7 M

For insulin, the “content of insulin at which the expression amount of type II collagen was the largest” value was 5 µg/mL.
